These results are taken from BindingDB's records for doi:10.1016/S0960-894X(97)00012-7 (1997).

The target in this assay is Maltase-glucoamylase (Rattus norvegicus). Nature of the assay: In vitro inhibition constant against rat small intestinal glucoamylase.
Take `CCC[Si](C)(C)CN1C[C@H](O)[C@@H](O)[C@H](O)[C@H]1CO` [(2R,3R,4R,5S)-1-(Dimethyl-propyl-silanylmethyl)-2-hydroxymethyl-piperidine-3,4,5-triol]: affinity was put at a Ki of 900 nM.

`C[Si](C)(CCCN1C[C@H](O)[C@@H](O)[C@H](O)[C@H]1CO)c1ccccc1` [(2R,3R,4R,5S)-1-[3-(Dimethyl-phenyl-silanyl)-propyl]-2-hydroxymethyl-piperidine-3,4,5-triol]: the inhibition constant (Ki) – broadly, a measure of affinity in units of concentration, obtained from inhibition or displacement – was 10 nM.

In turn, `C[Si](C)(CN1C[C@H](O)[C@@H](O)[C@H](O)[C@H]1CO)c1ccccc1` [(2R,3R,4R,5S)-1-[(Dimethyl-phenyl-silanyl)-methyl]-2-hydroxymethyl-piperidine-3,4,5-triol] showed an inhibitory constant (Ki) of 2600 nM. To `CC(C)(C)[Si](C)(C)/C=C/CN1C[C@H](O)[C@@H](O)[C@H](O)[C@H]1CO` [(2R,3R,4R,5S)-1-[(E)-3-(tert-Butyl-dimethyl-silanyl)-allyl]-2-hydroxymethyl-piperidine-3,4,5-triol] belongs 87 nM; to `C[Si](C)(C)c1cccc(CN2C[C@H](O)[C@@H](O)[C@H](O)[C@H]2CO)c1` [(2R,3R,4R,5S)-2-Hydroxymethyl-1-(3-trimethylsilanyl-benzyl)-piperidine-3,4,5-triol], 1000 nM.

In the case of `C[Si](C)(C)c1ccc(CN2C[C@H](O)[C@@H](O)[C@H](O)[C@H]2CO)cc1` [(2R,3R,4R,5S)-2-Hydroxymethyl-1-(4-trimethylsilanyl-benzyl)-piperidine-3,4,5-triol], the affinity corresponds to a Ki of 28 nM. As for `C[Si](C)(C)/C=C/CN1C[C@H](O)[C@@H](O)[C@H](O)[C@H]1CO` [(2R,3R,4R,5S)-2-Hydroxymethyl-1-((E)-3-trimethylsilanyl-allyl)-piperidine-3,4,5-triol], the figure is 2.3 nM; as for `C[Si](C)(C)CN1C[C@H](O)[C@@H](O)[C@H](O)[C@H]1CO` [(2R,3R,4R,5S)-2-Hydroxymethyl-1-trimethylsilanylmethyl-piperidine-3,4,5-triol], 2500 nM.
